Measurements taken from US9550811B2, “Peptide scaffold design” (BIONOR IMMUNO AS, priority 2010, dated 2017).

Experiments:
[1] = system: human PBMCs; experiment: Extracellular staining for biotinylated peptides (flow cytometry); type: cell-based
Description: 96-well U-bottom polystyrene plates (NUNC, cat no: 163320) were used for staining of human PBMCs. Briefly, 8 ul of N- or C-terminally biotinylated peptides according to table 1 or table 2 (i.e. 5 mM, 2.5 mM & 1.25 mM tested for each peptide; all peptides manufactured by Schafer) were incubated at 37° C. for 2 h with 40 ul of PBMC (12.5×10^6 cells/ml) from blood donors. Cells were then washed 3× with 150 ul of Cellwash (BD, cat no: 349524), then stained with Streptavidin-APC (BD, cat no: 554067) & Anti-hCD11c (eBioscience, cat no: 12-0116) according to manufacturer at 4° C. for 30 min aiming to visualize biotinylated peptides & dendritic cells, respectively. Cells were then washed 3× with 150 ul of Cellwash (BD, cat no: 349524), followed by resuspension in staining buffer (BD, cat no: 554656) before flow cytometry. Dendritic cells were gated as CD11c+ events outside lymphocyte region (i.e. higher FSC & SSC signals than lymphocytes). 200 000 total cells were acquired on a FACSCanto II flow cytometer with HTS loader, and histograms for both total cells & dendritic cells with respect to peptide-fluorescence (i.e. GeoMean) were prepared.

[2] = system: human PBMCs; type: cell-based
[3] = system: HLA-B15; experiment: REVEAL binding assay; conditions: score as percentage of the signal generated by the positive control peptide
Description: (§2) HLA-A1, HLA-A2, HLA-A3, HLA-A11, HLA-A24, HLA-A29, HLA-B7, HLA-B8, HLA-B14, HLA-B15, HLA-B27, HLA-B35, HLA-B40.
(§3) The REVEAL™ binding assay determined the ability of each candidate peptide to bind to one or more MHC class I alleles and stabilizing the MHC-peptide complex. […] Detection is based on the presence or absence of the native conformation of the MHC-peptide complex. Each peptide is given a score relative to the positive control peptide, which is a known T cell epitope.

[4] = system: HLA-B35; experiment: REVEAL binding assay; conditions: score as percentage of the signal generated by the positive control peptide
[5] = system: HLA-A1; experiment: REVEAL binding assay; conditions: score as percentage of the signal generated by the positive control peptide
[6] = target: HLA-A11 (Homo sapiens, UniProt P04439, A114D/F33Y/S129P); experiment: REVEAL binding assay; conditions: score as percentage of the signal generated by the positive control peptide
Method in brief: (§1)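 Synthetic nonamer peptides were tested for their ability to bind and stabilize MHC class I–peptide complexes, detected by the native conformation of the complex. Each peptide is scored relative to a positive-control known T-cell epitope.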

[7] = target: HLA-B27 (Homo sapiens, UniProt P01889, D138H/D201E/E176V/E204Q/G107R/H137Y/K202T/N104T/N87E/Q56L/Q94K/R106L/R155S/R180L/S101D/S121N/S48T/Y140D/Y33H/Y91C); experiment: REVEAL binding assay; conditions: score as percentage of the signal generated by the positive control peptide
Method in brief: as §1

[8] = target: HLA-A3 (Homo sapiens, UniProt P04439); experiment: REVEAL binding assay; conditions: score as percentage of the signal generated by the positive control peptide
Method in brief: as §1

[9] = target: HLA-A2 (Homo sapiens, UniProt P04439, D140Y/D185E/D98H/E176V/E277Q/G131W/G231S/I119V/I121R/I166T/I218V/N151K/N90K/P208A/P217A/Q86G/Q94H/R138H/R169H); experiment: REVEAL binding assay; conditions: score as percentage of the signal generated by the positive control peptide
Method in brief: as §1

[10] = target: HLA-B7 (Homo sapiens, UniProt P01889); experiment: REVEAL binding assay; conditions: score as percentage of the signal generated by the positive control peptide
Method in brief: as §1

[11] = system: HLA-B8; experiment: REVEAL binding assay; conditions: score as percentage of the signal generated by the positive control peptide
Description: as §2, §3

[12] = system: HLA-B40; experiment: REVEAL binding assay; conditions: score as percentage of the signal generated by the positive control peptide
Method in brief: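 Peptide–MHC class I complex stability assay on nonamers. Output: quantitative % relative to high-affinity control epitope, with putative pass/fail designation.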

[13] = system: HLA-A24; experiment: REVEAL binding assay; conditions: score as percentage of the signal generated by the positive control peptide
[14] = system: HLA-B14; experiment: REVEAL binding assay; conditions: score as percentage of the signal generated by the positive control peptide
[15] = system: HLA-A29; experiment: REVEAL binding assay; conditions: score as percentage of the signal generated by the positive control peptide

Sequence of HLA-A3 (P04439 25-299): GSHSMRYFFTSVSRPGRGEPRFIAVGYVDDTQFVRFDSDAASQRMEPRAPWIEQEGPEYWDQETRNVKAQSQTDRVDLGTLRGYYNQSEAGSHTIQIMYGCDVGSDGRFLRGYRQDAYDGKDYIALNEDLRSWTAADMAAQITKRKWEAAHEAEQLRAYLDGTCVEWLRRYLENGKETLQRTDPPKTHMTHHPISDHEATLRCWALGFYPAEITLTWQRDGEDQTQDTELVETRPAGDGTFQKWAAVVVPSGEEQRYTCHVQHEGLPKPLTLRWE
Sequence of HLA-A3 (P61769 21-119, further chain): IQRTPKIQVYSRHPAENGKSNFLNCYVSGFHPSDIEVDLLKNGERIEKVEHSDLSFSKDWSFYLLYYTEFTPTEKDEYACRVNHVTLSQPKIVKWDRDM
Sequence of HLA-B7 (P61769 21-119): as the sequence (P61769 21-119, further chain) above
Sequence of HLA-B7 (P01889 25-299): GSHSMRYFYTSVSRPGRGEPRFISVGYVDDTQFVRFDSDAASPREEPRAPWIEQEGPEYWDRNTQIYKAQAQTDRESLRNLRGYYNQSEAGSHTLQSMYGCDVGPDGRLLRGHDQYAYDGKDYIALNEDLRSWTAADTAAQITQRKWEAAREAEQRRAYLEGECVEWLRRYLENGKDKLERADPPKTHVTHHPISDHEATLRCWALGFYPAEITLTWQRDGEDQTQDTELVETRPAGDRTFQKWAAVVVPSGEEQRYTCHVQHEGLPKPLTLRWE

Sequence	Extracellular staining, median [1]	Intracellular staining, median [2]	REVEAL binding score, HLA-type B15 [3]	REVEAL binding score, HLA-type B35 [4]	REVEAL binding score, HLA-type A1 [5]	REVEAL binding score, HLA-type A11 [6]	REVEAL binding score, HLA-type B27 [7]	REVEAL binding score, HLA-type A3 [8]	REVEAL binding score, HLA-type A2 [9]	REVEAL binding score, HLA-type B7 [10]	REVEAL binding score, HLA-type B8 [11]	REVEAL binding score, HLA-type B40 [12]	REVEAL binding score, HLA-type A24 [13]	REVEAL binding score, HLA-type B14 [14]	REVEAL binding score, HLA-type A29 [15]
RRGYIPLVGAPLGRRVARALAHGVRV [compound 8]	3.06	6.92													
RGYIPLVGAPLGRRRVARALAHGVRVR [compound 6]	2.20	5.35													
RGYLPAVGAPIGRRRVIRVIAHGLRLR [compound 7]	29.42	11.59													
GYIPLVGAP			11.02%	10.35%	15.62%	3.84%	1.76%	3.46%	7.28%	1.37%	15.94%	72.32%	0.80%	0.47%	29.74%
RVIETLTSG			37.99%	1.90%	11.61%	3.25%	2.32%	2.23%	9.82%	0.50%	11.83%	32.30%	0.96%	0.11%	15.52%
GKVIDTLTC			7.31%	3.11%	14.77%	3.96%	0.84%	3.69%	4.89%	0.25%	13.63%	19.45%	0.41%	0.16%	14.26%
GGQIIGGNY			90.62%	2.22%	24.04%	2.40%	0.24%	2.23%	7.06%	1.09%	10.52%	15.03%	0.39%	0.25%	14.38%
LMGYIPLVG			9.43%	0.81%	14.17%	2.13%	1.44%	2.53%	31.94%	0.41%	20.75%	33.55%	0.51%	0.08%	24.26%
IIGGNYLIP			19.93%	5.35%	21.14%	2.81%	0.97%	3.88%	8.27%	15.47%	12.18%	65.43%	10.95%	1.17%	13.88%
GGQIVGGVY			110.34%	0.54%	13.97%	2.71%	0.66%	3.47%	6.88%	3.99%	14.66%	30.75%	1.78%	0.32%	20.46%
GYLPAVGAP			10.50%	1.84%	12.04%	4.25%	0.73%	2.90%	5.87%	3.10%	17.38%	27.82%	0.35%	0.11%	26.03%
GQIVGGVYL			182.45%	3.24%	15.07%	4.46%	1.01%	4.80%	55.85%	6.56%	14.53%	24.20%	0.50%	0.37%	13.73%
YIPLVGAPL			54.57%	99.81%	21.80%	3.54%	0.69%	5.29%	35.00%	41.87%	33.10%	30.22%	4.51%	0.13%	31.09%
